Assay results reported in ChEMBL document CHEMBL4364312, “Design, synthesis and biological evaluation of hydroxypyridinone-coumarin hybrids as multimodal monoamine oxidase B inhibitors and iron chelates against Alzheimer's disease” (Eur J Med Chem, 2019).

Columns and labels:
[1] = molecular target: T1, Amine oxidase [flavin-containing] B (Homo sapiens, UniProt P27338); conditions: 0.25 h, read-out: INH
T1 sequence (P27338 whole entry): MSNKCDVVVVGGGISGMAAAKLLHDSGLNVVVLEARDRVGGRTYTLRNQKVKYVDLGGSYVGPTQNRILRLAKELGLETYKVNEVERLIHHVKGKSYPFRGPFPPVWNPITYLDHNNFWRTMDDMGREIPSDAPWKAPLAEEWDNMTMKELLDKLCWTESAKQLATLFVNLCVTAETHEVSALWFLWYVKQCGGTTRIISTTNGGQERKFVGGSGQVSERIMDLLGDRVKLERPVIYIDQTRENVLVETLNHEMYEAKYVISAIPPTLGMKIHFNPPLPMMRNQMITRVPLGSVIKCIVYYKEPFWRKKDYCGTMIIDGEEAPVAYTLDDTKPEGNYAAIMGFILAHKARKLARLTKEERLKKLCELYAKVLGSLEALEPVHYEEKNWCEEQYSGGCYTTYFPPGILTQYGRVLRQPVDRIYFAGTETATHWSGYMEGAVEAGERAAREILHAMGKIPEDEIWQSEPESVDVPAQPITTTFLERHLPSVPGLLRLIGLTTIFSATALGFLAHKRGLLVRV
Description: Inhibition of recombinant human MAO-B expressed in baculovirus infected BTI insect cells at 10 uM incubated for 15 mins with substrate p-Tyramine by fluorescence assay relative to control

physchem [2] = conditions: DMSO:KCl
Description: Dissociation constant, pKa1 of compound for protonation of the 4-oxo group in DMSO:KCl at 30 uM/L incubated for 1 min by UV-Vis spectrophotometry

physchem [3] = conditions: DMSO:KCl; remark: listed apart in the source
Description: Dissociation constant, pKa2 of compound for 3-(or 5-) hydroxyl group in DMSO:KCl at 30 uM/L incubated for 1 min by UV-Vis spectrophotometry

[4] = molecular target: T1, Amine oxidase [flavin-containing] B; experiment: biochemical
Description: Inhibition of recombinant human MAO-B expressed in baculovirus infected BTI insect cells incubated for 15 mins with substrate p-Tyramine by fluorescence assay

[5] = Binding affinity to Fe3+ assessed as equilibrium binding constant logK2 in KCl pH 2 to 10.5 at 30 uM incubated for 20 mins by UV-Vis spectrophotometric method
[6] = Binding affinity to Fe3+ assessed as equilibrium binding constant logK3 in KCl pH 2 to 10.5 at […] 30 uM by UV-Vis spectrophotometric method
U-251 [7] = experiment: Cytotoxicity against human U251 cells assessed as reduction in cell viability at 0.01 to 100 uM incubated for 24 hrs by MTS assay; type: cell-based; conditions: u-251, 24 h
U-251 [8] = experiment: Cytoprotective against H2O2-induced cell death in human U251 cells assessed as increase in cell viability at 100 uM preincubated for 24 hrs followed by H2O2 induction and measured after 1 hr by MTS assay (reference value: 50%); type: functional
Mus musculus [9] = experiment: Cognition enhancement in scopolamine-induced impairment in ICR mouse assessed as latency time at 10 mg/kg, ip administered once daily for 2 weeks pretreated with scopolamine for 30 mins and measured at 5th day of training session by Morris water maze test (reference value: 40.2 +/- 10.5 sec); type: functional
Mus musculus [10] = experiment: (§1) Cognition enhancement in scopolamine-induced impairment in ICR mouse assessed as distance to target at 10 mg/kg, ip administered once daily for 2 weeks pretreated with scopolamine for 30 mins and measured at 5th day of training session by Morris water maze test (reference value: 10.4 +/- 1.2 meter); type: functional
Mus musculus [11] = experiment: as §1, with “number of times” for “distance”, “to enter” for “to”, “target quadrant” for “target”, “9.0” for “10.4”, “0.8)” for “1.2 meter)”; type: functional

Structure (SMILES) | inhibition at 10 µM [1] | pKa at 1 min, 30 µM (physchem [2]) | pKa at 1 min, 30 µM (physchem [3]) | IC50 [4] | other results
Cc1cc(=O)c(O)cn1Cc1cc2ccccc2oc1=O | 6.8% | 3.14 | 8.97 |  | 
COc1ccc2cc(Cn3cc(O)c(=O)cc3C)c(=O)oc2c1 | 38.3% | 3.15 | 9 |  | 
COc1ccc2cc(Cn3ccc(=O)c(O)c3C)c(=O)oc2c1 | 94.4% | 3.13 | 9.66 | 0.0919 µM | 
CCc1c(O)c(=O)ccn1Cc1cc2ccc(OCc3cccc(F)c3)cc2oc1=O | 91.9% | 3.12 | 9.69 | 0.265 µM | 
CCc1c(O)c(=O)ccn1Cc1cc2ccc(OCc3cccc(Cl)c3)cc2oc1=O | 92.5% | 3.1 | 9.76 | 0.425 µM | 
CCc1c(O)c(=O)ccn1Cc1cc2ccc(OCc3ccc(F)cc3)cc2oc1=O | 91.6% | 3.15 | 9.62 | 0.163 µM | 
Cc1cc(=O)c(O)cn1Cc1cc2ccc(OCc3cccc(Cl)c3)cc2oc1=O | 82% | 3.16 | 9.07 | 0.127 µM | 
Cc1cc(=O)c(O)cn1Cc1cc2ccc(OCc3cc(F)cc(F)c3)cc2oc1=O | 68.1% | 3.11 | 8.95 |  | 
Cc1c(O)c(=O)ccn1Cc1cc2ccc(OCc3ccccc3)cc2oc1=O | 89.6% | 3.11 | 9.61 | 0.336 µM | 
Cc1c(O)c(=O)ccn1C [DEFERIPRONE] |  | 3.65 | 9.89 |  | logKb [5]: 27.7; logKb [6]: 37.3
CCc1c(O)c(=O)ccn1Cc1cc2ccc(OCc3ccccc3)cc2oc1=O | 91.9% | 3.11 | 9.71 | 0.129 µM | 
Cc1c(O)c(=O)ccn1Cc1cc2ccc(OCc3cccc(Cl)c3)cc2oc1=O | 21.2% | 3.17 | 9.67 |  | 
Cc1c(O)c(=O)ccn1Cc1cc2ccccc2oc1=O | 22.4% | 3.07 | 9.68 |  | 
CCc1c(O)c(=O)ccn1Cc1cc2ccc(OC)cc2oc1=O | 50.7% | 3.09 | 9.7 |  | 
Cc1c(O)c(=O)ccn1Cc1cc2ccc(OCc3cccc(F)c3)cc2oc1=O | 81.3% | 3.1 | 9.65 | 0.0147 µM | Activity (U-251 [7]): Non-Toxic; Activity (U-251 [8]): 57.8%; Time (Mus musculus [9]): 9.6 s; Activity (Mus musculus [10]): 4.2 m; Activity (Mus musculus [11]): 16.6
CCc1c(O)c(=O)ccn1Cc1cc2ccc(OCc3cc(F)cc(F)c3)cc2oc1=O | 91.7% | 3.08 | 9.7 | 0.223 µM | 
C#CCN(C)Cc1ccccc1 [PARGYLINE] |  |  |  |  | Activity (U-251 [8]): 61.5%; Time (Mus musculus [9]): 5.6 s; Activity (Mus musculus [10]): 6.6 m; Activity (Mus musculus [11]): 16.3
Cc1cc(=O)c(O)cn1Cc1cc2ccc(OCc3ccc(F)cc3)cc2oc1=O | 87.6% | 3.26 | 8.87 | 0.145 µM | 
Cc1cc(=O)c(O)cn1Cc1cc2ccc(OCc3ccccc3)cc2oc1=O | 86.5% | 3.12 | 9.03 | 0.29 µM | 
Cc1cc(=O)c(O)cn1Cc1cc2ccc(OCc3cccc(F)c3)cc2oc1=O | 85.8% | 3.15 | 8.99 | 0.193 µM | 
O=C1O[C@H]([C@@H](O)CO)C(O)=C1O [ASCORBIC ACID] |  |  |  |  | Activity (U-251 [8]): 57.6%
CCc1c(O)c(=O)ccn1Cc1cc2ccccc2oc1=O | 25% | 3.03 | 9.7 |  | 
Cc1c(O)c(=O)ccn1Cc1cc2ccc(OCc3cc(F)cc(F)c3)cc2oc1=O | 67.5% | 3.1 | 9.54 |  | 
C#CCOc1ccc2cc(Cn3ccc(=O)c(O)c3C)c(=O)oc2c1 | 47.1% | 3.11 | 9.58 |  | 
C#CCOc1ccc2cc(Cn3cc(O)c(=O)cc3C)c(=O)oc2c1 | 50.6% | 3.07 | 8.94 |  | 
C#CCOc1ccc2cc(Cn3ccc(=O)c(O)c3CC)c(=O)oc2c1 | 78.1% | 2.95 | 9.63 | 0.121 µM | 
